Assay results from US11254640B2, “N-substituted indoles and other heterocycles for treating brain disorders” (The Regents of the University of California, priority 2019, dated 2022).

Columns and labels:
5HT2A sensor [1] = assay: 5HT2A sensor assay, agonist mode (sLight1.3s HEK293T stable line); type: cell-based; settings: for activation of 5HT2A sensor assay in agonist mode at 10 μM: 10 μM of compound (FIG. 11); for activation of 5HT2A sensor assay in agonist mode (dose response): dose response (FIG. 10)
In short: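 Fluorescence change, dFF=(Fsat−Fapo)/Fapo, was taken from membrane images (460 nm excitation) before and after compound addition and scaled as % activation, with the DMSO mean as 0 and the 5HT mean as 100. The cells were sLight1.3s HEK293T in HBSS. Final compound levels were 100 μM, 10 μM and 100 nM in 0.1% DMSO, in triplicate.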

cortical neurons [2] = assay: Dendritogenesis assay, Sholl analysis; type: cell-based, rat; settings: 10 μM; for Emax at 10 µM: Rattus norvegicus, Cortical neurone, Nmax with vehicle (DMSO) = 0% and ketamine = 100%, read-out: % efficacy in sholls; for dendritic arbor complexity / neuronal growth (Nmax of Sholl plots): cortical neurons
From the text: Dendritogenesis Assays. Phenotypic screening has historically proven more successful than target-based approaches for identifying drugs with novel mechanisms of action. Having established a simple and robust method for accessing isoDMT analogs, tested next was their ability to increase dendritic arbor complexity in cultures of cortical neurons using a phenotypic assay. Following treatment, neurons were fixed and visualized using an antibody against MAP2—a cytoskeletal protein localized to the somatodendritic compartment of neurons. Sholl analysis was then performed, and the maximum number of crossings (Nmax) was used as a quantitative metric of dendritic arbor complexity. For statistical comparisons between specific compounds, the raw Nmax values were compared. Percent efficacies were determined by setting the Nmax values for the vehicle (DMSO) and positive (ketamine) controls equal to 0% and 100%, respectively.
(§1) Animals. For the dendritogenesis experiments, timed pregnant Sprague Dawley rats were obtained from Charles River Laboratories (Wilmington, Mass.). For the head-twitch response assay, male and female C57BL/6J mice were obtained from Jackson Laboratory (Sacramento, Calif.). Mice were housed in a temperature and humidity-controlled room maintained on a 12-h light/dark cycle in groups of 4-5 (same sex). Animals weighed between 17 and 30 g at the time of the experiments. All experimental procedures involving rodents were approved by the UC Davis Institutional Animal Care and Use Committee (IACUC) and adhered to principles described in the National Institutes of Health Guide for the Care and Use of Laboratory Animals. The University of California, Davis and the University of California, San Francisco are accredited by the Association for Assessment and Accreditation of Laboratory Animal Care International (AAALAC).
Dendritogenesis—Sholl Analysis. Dendritogenesis experiments were performed following a previously published method with slight modifications. Neurons were plated in 96-well format (200 μL of media per well) at a density of approximately 15,000 cells/well in Neurobasal (Life Technologies) containing 1% penicillin-streptomycin, 10% heat-inactivated fetal bovine serum, and 0.5 mM glutamine. After 24 h, the medium was replaced with Neurobasal containing 1× B27 supplement (Life Technologies), 1% penicillin-streptomycin, 0.5 mM glutamine, and 12.5 μM glutamate. After 3 days in vitro (DIV3), the cells were treated with compounds. All compounds tested in the dendritogenesis assays were treated at 10 μM unless noted otherwise. Stock solutions of the compounds in DMSO were first diluted 100-fold in Neurobasal before an additional 10-fold dilution into each well (total dilution=1:1000; 0.1% DMSO concentration). Treatments were randomized. After 1 h, the media was removed and replaced with new Neurobasal media containing 1× B27 supplement, 1% penicillin-streptomycin, 0.5 mM glutamine, and 12.5 μM glutamate. The cells were allowed to grow for an additional 71 h. At that time, neurons were fixed by removing 80% of the media and replacing it with a volume of 4% aqueous paraformaldehyde (Alfa Aesar) equal to 50% of the working volume of the well. Then, the cells were incubated at room temperature for 20 min before the fixative was aspirated and each well washed twice with DPBS. Cells were permeabilized using 0.2% Triton X-100 (ThermoFisher) in DPBS for 20 minutes at room temperature without shaking. Plates were blocked with antibody diluting buffer (ADB) containing 2% bovine serum albumin (BSA) in DPBS for 1 h at room temperature. Then, plates were incubated overnight at 4° C. with gentle shaking in ADB containing a chicken anti-MAP2 antibody (1:10,000; EnCor, CPCA-MAP2). The next day, plates were washed three times with DPBS and once with 2% ADB in DPBS. […]

cortical neurons [3] = assay: Ketanserin blocking experiments (dendritogenesis); type: cell-based, rat; settings: ketanserin 10 μM, drug 1 μM (FIG. 7)
Protocol: Ketanserin Blocking Experiments. For the ketaserin blocking experiments (FIG. 7), a slightly modified method was employed. On DIV 3, neurons were first treated with ketanserin (10 μM) for 1 h followed by a 1 h incubation with drug (1 μM) and ketanserin (10 μM) (final concentration of DMSO=0.2%). After 1 h, the media was removed and replaced with new Neurobasal media containing 1× B27 supplement, 1% penicillin-streptomycin, 0.5 mM glutamine, and 12.5 μM glutamate. The cells were allowed to grow for an additional 71 h before being fixed, stained, and imaged.

C57BL/6J mice = assay: Head twitch response (HTR) assay; type: in vivo, mouse; settings: intraperitoneal injection, head-twitches over 20 mins (FIG. 8, FIG. 9)
From the text: as §1
Head twitch response experiments. Mice (9-10 weeks old) were injected intraperitoneally with compound (injection volume 5 ml/kg), placed in an empty cage, and filmed for 20 minutes. Cages were cleaned with 70% ethanol between experiments.

rats = rats trained to discriminate DOM from saline; cited from earlier work
C57/BL6J mice = assay: Forced swim test (FST); type: in vivo, mouse; settings: 24 h after drug administration; i.p., compounds 20 mg/kg, ketamine 3 mg/kg
Protocol: Forced Swim Test. As increased cortical structural plasticity in the anterior parts of the brain mediates the sustained (>24 h) antidepressant-like effects of ketamine and play a role in the therapeutic effects of 5-HT2A agonists, the impact of IsoDMT analogs on forced swim test (FST) behavior (FIG. 14A and FIG. 14B) was evaluated. First, a pretest was used to induce a depressive phenotype. Compounds were administered 24 h after the pre-test, and the FST was performed 24 h and 7 d post drug administration.
Forced Swim Test (FST). Male C57/BL6J mice (9-10 weeks old at time of experiment) were obtained from the Jackson Lab and housed 4-5 mice/cage in a UCD vivarium following an IACUC approved protocol. After 1 week in the vivarium each mouse was handled for approximately 1 minute by a experimenter for 3 consecutive days leading up to the first FST. […] Immobility scores for all mice were determined after the pre-test and mice were randomly assigned to treatment groups to generate groups with similar average immobility scores to be used for the following two FST sessions. […] Experiments were video-recorded and manually scored offline. Immobility time—defined as passive floating or remaining motionless with no activity other than that needed to keep the mouse's head above water—was scored for the last 4 min of the 6 min trial.

5HT2A sensor [4] = assay: 5HT2A sensor assay, antagonist mode (sLight1.3s HEK293T stable line); type: cell-based; settings: dose response (FIG. 12A, FIG. 12B)
In short: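 Inactivation score is computed from membrane dFF as (dFF(compound+5HT)−dFF(5HT))/dFF(5HT), with HBSS-only fluorescence as Fapo. Final concentrations: 5-HT 100 nM added first, then compound at 100 nM, 10 μM or 100 μM in 0.1% DMSO. Triplicates; FITC imaging, 5 fields per well.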

Row | SMILES | Emax at 10 µM (cortical neurons [2]) [%] | dendritic arbor complexity / neuronal growth (Nmax of Sholl plots) (cortical neurons [2]) | melting point [°C] | other results
1 | COc1ccc2[nH]cc(CCN(C)C)c2c1 [Example 28, 2-(5-methoxy-1H-indol-3-yl)-N,N-dimethylethan-1-amine, reference compound] | 80 |  |  | activation of 5HT2A sensor assay in agonist mode at 10 μM (5HT2A sensor [1]): activate the 5HT2A sensor assay in agonist mode; activation of 5HT2A sensor assay in agonist mode (dose response) (5HT2A sensor [1]): activate; effect of 5-HT2A antagonist pretreatment on increase in dendritic growth (cortical neurons [3]): blocked; head-twitch response (hallucinogenic potential) (C57BL/6J mice): robust, dose-dependent HTR; substitution for hallucinogenic training drug (DOM) in drug discrimination (rats): substitutes
2 | CNC1(c2ccccc2Cl)CCCCC1=O (stereo not drawn) [ketamine, reference compound] |  |  |  | immobility in forced swim test (C57/BL6J mice): significantly reduced immobility
3 | CN(C)CCn1cnc2ccccc21.O=C(O)/C=C/C(=O)O [Example 22, 2-(1H-benzo[d]imidazol-1-yl)-N,N-dimethylethan-1-amine] | 50 | minimal effect on the ability of these molecules to promote neuronal growth | 171 to 178 | 
4 | COc1ccc2c(CCN(C)C)c[nH]c2c1 [Example 30, 2-(6-methoxy-1H-indol-3-yl)-N,N-dimethylethan-1-amine, reference compound] | 72 |  |  | activation of 5HT2A sensor assay in agonist mode at 10 μM (5HT2A sensor [1]): do not activate the 5HT2A sensor assay in agonist mode; activation of 5HT2A sensor assay in agonist mode (dose response) (5HT2A sensor [1]): do not; competition with 5-HT in 5HT2A sensor assay, antagonist mode (dose response) (5HT2A sensor [4]): compete off 5-HT; head-twitch response (hallucinogenic potential) (C57BL/6J mice): did not produce a HTR; substitution for hallucinogenic training drug (DOM) in drug discrimination (rats): does not
5 | CN(C)CCn1ccc2ccc(F)cc21.O=C(O)/C=C/C(=O)O [Example 14, 2-(6-fluoro-1H-indol-1-yl)-N,N-dimethylethan-1-amine] | 88 |  | 141 to 147 | 
6 | CN(C)CCn1ccc2ccc([N+](=O)[O-])cc21.O=C(O)/C=C/C(=O)O [Example 19, N,N-dimethyl-2-(6-nitro-1H-indol-1-yl)ethan-1-amine] | 85 |  | 159 to 164 | 
7 | CN(C)CCn1c2ccccc2c2ccccc21.O=C(O)/C=C/C(=O)O [Example 24, 2-(9H-carbazol-9-yl)-N,N-dimethylethan-1-amine] | 86 | minimal effect on the ability of these molecules to promote neuronal growth | 182 to 184 | 
8 | CN(C)C(=O)Cn1ccc2ccccc21 [Example 31, 2-(1H-indol-1-yl)-N,N-dimethylacetamide] |  | did not promote neuronal growth | 58 to 61 | 
9 | Cc1cc2ccccc2n1CCN(C)C.O=C(O)/C=C/C(=O)O [Example 16, N,N-dimethyl-2-(2-methyl-1H-indol-1-yl)ethan-1-amine] | 104 | well tolerated | 131 to 133 | 
10 | CN(C)CCn1ccc2cc(Br)ccc21.O=C(O)/C=C/C(=O)O [Example 20, 2-(5-bromo-1H-indol-1-yl)-N,N-dimethylethan-1-amine] | 117 |  | 140 to 142 | 
